These results are taken from PMC8508710, “Biochemical Characterization of 13-Lipoxygenases of Arabidopsis thaliana” (International Journal of Molecular Sciences, 2021).

In one experiment the target is T1, LOX2 (Arabidopsis thaliana, UniProt P38418).
T1 sequence (P38418 71-896): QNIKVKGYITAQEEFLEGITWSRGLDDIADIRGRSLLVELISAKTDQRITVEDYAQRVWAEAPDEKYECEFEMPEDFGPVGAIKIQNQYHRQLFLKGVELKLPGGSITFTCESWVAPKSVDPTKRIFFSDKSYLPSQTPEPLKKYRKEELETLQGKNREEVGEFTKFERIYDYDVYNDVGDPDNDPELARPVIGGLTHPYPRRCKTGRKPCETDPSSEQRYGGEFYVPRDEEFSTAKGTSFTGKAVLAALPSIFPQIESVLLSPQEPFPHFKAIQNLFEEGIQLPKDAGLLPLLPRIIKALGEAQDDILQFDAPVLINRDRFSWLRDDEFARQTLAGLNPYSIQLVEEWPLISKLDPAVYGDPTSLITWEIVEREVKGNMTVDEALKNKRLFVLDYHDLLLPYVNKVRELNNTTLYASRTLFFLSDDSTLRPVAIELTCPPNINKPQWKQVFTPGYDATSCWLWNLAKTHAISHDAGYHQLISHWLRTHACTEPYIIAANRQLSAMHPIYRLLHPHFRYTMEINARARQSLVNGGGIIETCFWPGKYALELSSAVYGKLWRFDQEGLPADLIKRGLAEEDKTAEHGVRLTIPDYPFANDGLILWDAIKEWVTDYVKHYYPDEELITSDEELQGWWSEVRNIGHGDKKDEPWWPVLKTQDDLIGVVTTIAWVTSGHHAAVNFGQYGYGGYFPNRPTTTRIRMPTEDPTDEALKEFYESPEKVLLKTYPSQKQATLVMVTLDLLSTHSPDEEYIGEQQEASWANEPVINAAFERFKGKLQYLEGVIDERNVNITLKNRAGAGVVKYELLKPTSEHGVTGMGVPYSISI
Briefly: Intrinsic fluorescence of LOX2. The settings on record: as Figure 5B; for Emission maximum: control 336.5±0.6, in nm (unit assumed); for Relative fluorescence intensity at emission maximum: λExc = 280 nm, control 125.5±2.0. Format: binding. The arrangement: made in house; host or cells: E. coli Nico21(DE3), pET15b. The procedure: Figure 5 Analysis of the interaction of 12-OPDA and MJ with LOX4. […] LOX4 (0.22 µg/µL) was incubated with compounds at indicated concentrations for 10 min at 30 °C, and residual LOX activity was measured spectrophotometrically by the injection of 3 µL incubation mixture into 123 µL LeA (4.8 µM in 50 mM Tris-HCl, pH 7.2). […] (B) Intrinsic fluorescence of LOX4 incubated with 12-OPDA, MJ and solvent (control). Here, 120 µL LOX4 (0.2 µg/µL) was mixed with 15 µL chemical (1.4 mM in 50 mM K-Pi, pH 8.0) or solvent (control) and analyzed for intrinsic fluorescence emission after excitation at λExc = 280 nm. Mean graphs are shown (n = 4).
Int. J. Mol. Sci. 2021, 22, x FOR PEER REVIEW 11 of 17
Figure S7. Interaction and activity studies of LOX2, LOX3 and LOX6. (A) LOX2, LOX3 and LOX6 activities in presence of increasing amounts of MJ and 12-OPDA. Analysis was performed as described for IC50 determination of LOX4 (see Figure 5A). 100% activity […]
(B) Intrinsic fluorescence of LOX2 and LOX3 incubated with 12-OPDA, MJ and solvent control. Analysis was performed as in Figure 5B. […]

The next experiment deals with T2, LOX4 (Arabidopsis thaliana, UniProt Q9FNX8).
T2 sequence (Q9FNX8 71-926): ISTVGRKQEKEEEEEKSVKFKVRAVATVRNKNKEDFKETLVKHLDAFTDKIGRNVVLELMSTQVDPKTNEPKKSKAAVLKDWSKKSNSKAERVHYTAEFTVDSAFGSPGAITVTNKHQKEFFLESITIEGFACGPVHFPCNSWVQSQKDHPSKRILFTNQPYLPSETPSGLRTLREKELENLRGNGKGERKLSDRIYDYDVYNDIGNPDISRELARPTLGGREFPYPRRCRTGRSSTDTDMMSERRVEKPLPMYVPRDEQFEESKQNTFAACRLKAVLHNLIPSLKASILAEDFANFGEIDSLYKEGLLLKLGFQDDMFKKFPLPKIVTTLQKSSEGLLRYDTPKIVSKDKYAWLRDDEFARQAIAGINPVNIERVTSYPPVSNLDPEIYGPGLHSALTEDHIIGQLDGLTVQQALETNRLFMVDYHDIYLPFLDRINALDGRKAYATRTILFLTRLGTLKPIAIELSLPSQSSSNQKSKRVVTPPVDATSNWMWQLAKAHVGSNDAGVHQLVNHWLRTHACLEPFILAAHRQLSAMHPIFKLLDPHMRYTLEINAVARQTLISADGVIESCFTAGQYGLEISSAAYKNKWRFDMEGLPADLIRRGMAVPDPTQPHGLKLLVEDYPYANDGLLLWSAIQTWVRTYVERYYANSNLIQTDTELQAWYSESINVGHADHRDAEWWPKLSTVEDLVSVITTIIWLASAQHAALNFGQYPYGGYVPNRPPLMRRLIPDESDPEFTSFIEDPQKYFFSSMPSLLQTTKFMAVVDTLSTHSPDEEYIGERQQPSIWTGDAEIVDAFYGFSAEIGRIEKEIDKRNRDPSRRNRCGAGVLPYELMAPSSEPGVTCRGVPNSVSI
The experiment can be described thus: Free thiols of LOX4 (Ellman, DTNB). The arrangement: made in house; host or cells: E. coli Nico21(DE3), pET15b. The settings on record: LOX4 4.2 µM incubated 20 min with 12-OPDA; control 7.6 ± 0.1. On the procedure:
The iron content was analyzed as described. Free protein thiols were determined as described in [80] with slight variations. Briefly, 150 µL LOX4 (4.2 µM) was mixed with 1.5 µL 30 mM 12-OPDA (in EtOH) or EtOH (solvent control). After 20 min of incubation at 25 °C, samples were mixed with 10 µL dithionitrobencene (DTNB, 2 mM in 40 mM K-Pi, pH 8.0) and incubated for 30 min in the dark. Samples were measured at 412 nm, ε412nm = 13,600 […] (KC4 microplate reader, Biotec, 25 °C) for determination of the thiol/protein ratio with background correction (150 µL 40 mM K-Pi, pH 8.0, 10 µL DTNB 2 mM, 1.5 µL ligand stock or EtOH).

On to `CCC=CCC1C(=O)C=CC1CCCCCCCC(=O)O` (stereo not drawn) [12-OPDA, cis-(+)-12-oxophytodienoic acid], for which, on LOX2, the Emission maximum is reported as 337.2±0.3 and the “Relative fluorescence intensity at emission maximum” value stood at 117.5±2.0. The “Free thiols (Cys residues) of LOX4 after incubation” value at LOX4 is 5.9 ± 0.1 mol·mol^−1.
Take `CC/C=C\CC1C(=O)CCC1CC(=O)OC` (centres unmarked) [MJ, methyl jasmonate]: on LOX2, the Emission maximum is recorded as 337.3±0.6 and the “Relative fluorescence intensity at emission maximum” value is 119.7±2.7.
